Literature values as cited in US20200061085A1, “COMPOSITION FOR TREATMENT, INHIBITION AND ATTENUATION OF MELANOMA VIRUS AND PREVENTION OF SKIN CANCERS” (priority 2018, published 2020).

Settings: STS given exogenously, 90 years of cumulative uses (renal, cyanide, eclampsia)

## sodium thiosulfate [STS]
  fatalities: no fatalities
